The target in test [1] is Cyclin-dependent kinase 4/cyclin D1 (Homo sapiens) (UniProt P11802+P24385). In words: Inhibition of human CDK4/cyclin D1 using RB Protein as substrate at 1 uM in presence of 32P-ATP by Hotspot assay relative to control; values are per cent of control.
Test [2] addresses Serine/threonine-protein kinase B-raf (Homo sapiens) (UniProt P15056). In words: Inhibition of human BRAF using MEK1 (K97R) as substrate at 1 uM in presence of 32P-ATP by Hotspot assay relative to control; values are per cent of control.
The target of test [3] is Non-receptor tyrosine-protein kinase TYK2 (Homo sapiens) (UniProt P29597). In words: Inhibition of human TYK2 using KKSRGDYMTMQIG as substrate at 1 uM in presence of 32P-ATP by Hotspot assay relative to control; values are per cent of control.
Test [4] has as its target T1, Cytoplasmic tyrosine-protein kinase BMX (Homo sapiens) (UniProt P51813).
T1 sequence (whole entry): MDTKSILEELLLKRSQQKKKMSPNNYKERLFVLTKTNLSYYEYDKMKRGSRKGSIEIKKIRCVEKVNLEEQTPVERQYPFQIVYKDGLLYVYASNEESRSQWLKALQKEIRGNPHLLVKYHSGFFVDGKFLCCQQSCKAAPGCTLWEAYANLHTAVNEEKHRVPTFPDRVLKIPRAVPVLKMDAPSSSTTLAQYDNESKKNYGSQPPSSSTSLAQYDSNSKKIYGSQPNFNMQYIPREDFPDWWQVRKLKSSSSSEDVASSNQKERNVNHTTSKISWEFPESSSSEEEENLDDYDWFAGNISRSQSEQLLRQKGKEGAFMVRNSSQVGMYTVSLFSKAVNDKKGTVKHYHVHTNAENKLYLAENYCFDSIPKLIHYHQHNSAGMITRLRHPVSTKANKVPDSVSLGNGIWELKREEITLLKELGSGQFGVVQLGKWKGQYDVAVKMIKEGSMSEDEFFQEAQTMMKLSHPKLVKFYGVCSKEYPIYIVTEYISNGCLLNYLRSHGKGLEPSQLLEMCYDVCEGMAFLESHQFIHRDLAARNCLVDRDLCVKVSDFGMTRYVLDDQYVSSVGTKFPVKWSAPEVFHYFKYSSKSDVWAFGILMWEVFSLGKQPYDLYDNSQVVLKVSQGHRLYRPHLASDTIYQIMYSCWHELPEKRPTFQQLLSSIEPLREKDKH
In words: Inhibition of human BMX/ETK using poly[Glu:Tyr] (4:1) as substrate at 1 uM in presence of 32P-ATP by Hotspot assay relative to control; values are per cent of control.

For test [5], the target named is Serine/threonine-protein kinase PAK 1 (Homo sapiens) (UniProt Q13153). In words: Inhibition of human PAK1 using RRRLSFAEPG as substrate at 1 uM in presence of 32P-ATP by Hotspot assay relative to control; values are per cent of control.
In test [6] the target is Mitogen-activated protein kinase kinase kinase kinase 5 (Homo sapiens) (UniProt Q9Y4K4). In words: Inhibition of human KHS/MAP4K5 using myelin basic protein as substrate at 1 uM in presence of 32P-ATP by Hotspot assay relative to control; values are per cent of control.
Test [7] concerns the target Tyrosine-protein kinase Fes/Fps (Homo sapiens) (UniProt P07332). In words: Inhibition of human FES/FPS using poly[Glu:Tyr] (4:1) as substrate at 1 uM in presence of 32P-ATP by Hotspot assay relative to control; values are per cent of control.
The target in test [8] is Maternal embryonic leucine zipper kinase (Homo sapiens) (UniProt Q14680). In words: Inhibition of human MELK using KKLNRTLSFAEPG as substrate at 1 uM in presence of 32P-ATP by Hotspot assay relative to control; values are per cent of control.
For test [9], the target named is T2, Calcium/calmodulin-dependent protein kinase type IV (Homo sapiens) (UniProt Q16566).
T2 sequence (whole entry): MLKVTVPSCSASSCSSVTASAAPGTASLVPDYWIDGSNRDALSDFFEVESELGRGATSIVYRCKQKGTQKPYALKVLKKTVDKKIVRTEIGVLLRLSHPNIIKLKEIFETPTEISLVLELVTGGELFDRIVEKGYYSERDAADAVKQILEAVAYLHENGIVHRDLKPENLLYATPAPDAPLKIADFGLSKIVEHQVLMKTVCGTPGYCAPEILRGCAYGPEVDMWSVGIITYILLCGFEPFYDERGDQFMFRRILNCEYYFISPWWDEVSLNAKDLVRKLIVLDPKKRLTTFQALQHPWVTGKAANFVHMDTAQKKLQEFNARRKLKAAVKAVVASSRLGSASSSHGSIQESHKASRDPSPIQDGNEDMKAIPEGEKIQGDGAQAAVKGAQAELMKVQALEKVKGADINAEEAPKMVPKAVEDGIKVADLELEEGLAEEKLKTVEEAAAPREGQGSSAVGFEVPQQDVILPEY
In words: Residual activity of human CAMK4 using KKLNRTLSFAEPG as substrate at 1 uM in presence of 32P-ATP by Hotspot assay relative to control.

The target of test [10] is Activated CDC42 kinase 1 (Homo sapiens) (UniProt Q07912). In words: Inhibition of human ACK1 using EAIYAAPFAKKK as substrate at 1 uM in presence of 32P-ATP by Hotspot assay relative to control; values are per cent of control.
Test [11] addresses T3, Aurora kinase C (Homo sapiens) (UniProt Q9UQB9).
T3 sequence (whole entry): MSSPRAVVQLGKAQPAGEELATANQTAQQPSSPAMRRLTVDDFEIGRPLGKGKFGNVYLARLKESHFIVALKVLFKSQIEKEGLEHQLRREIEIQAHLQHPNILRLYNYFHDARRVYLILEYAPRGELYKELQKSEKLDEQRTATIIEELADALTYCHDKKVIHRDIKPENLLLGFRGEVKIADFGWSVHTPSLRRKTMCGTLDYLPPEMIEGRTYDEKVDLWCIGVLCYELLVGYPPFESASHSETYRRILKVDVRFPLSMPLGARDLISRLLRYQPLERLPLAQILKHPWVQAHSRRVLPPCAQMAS
In words: Inhibition of human Aurora C using H-LRRASLG as substrate at 1 uM in presence of 32P-ATP by Hotspot assay relative to control; values are per cent of control.

Test [12] concerns the target Serine/threonine-protein kinase pim-2 (Homo sapiens) (UniProt Q9P1W9). In words: Inhibition of human PIM2 using RSRHSSYPAGT as substrate at 1 uM in presence of 32P-ATP by Hotspot assay relative to control; values are per cent of control.

Tyrosine-protein kinase Fes/Fps (Homo sapiens), sequence (P07332 whole entry): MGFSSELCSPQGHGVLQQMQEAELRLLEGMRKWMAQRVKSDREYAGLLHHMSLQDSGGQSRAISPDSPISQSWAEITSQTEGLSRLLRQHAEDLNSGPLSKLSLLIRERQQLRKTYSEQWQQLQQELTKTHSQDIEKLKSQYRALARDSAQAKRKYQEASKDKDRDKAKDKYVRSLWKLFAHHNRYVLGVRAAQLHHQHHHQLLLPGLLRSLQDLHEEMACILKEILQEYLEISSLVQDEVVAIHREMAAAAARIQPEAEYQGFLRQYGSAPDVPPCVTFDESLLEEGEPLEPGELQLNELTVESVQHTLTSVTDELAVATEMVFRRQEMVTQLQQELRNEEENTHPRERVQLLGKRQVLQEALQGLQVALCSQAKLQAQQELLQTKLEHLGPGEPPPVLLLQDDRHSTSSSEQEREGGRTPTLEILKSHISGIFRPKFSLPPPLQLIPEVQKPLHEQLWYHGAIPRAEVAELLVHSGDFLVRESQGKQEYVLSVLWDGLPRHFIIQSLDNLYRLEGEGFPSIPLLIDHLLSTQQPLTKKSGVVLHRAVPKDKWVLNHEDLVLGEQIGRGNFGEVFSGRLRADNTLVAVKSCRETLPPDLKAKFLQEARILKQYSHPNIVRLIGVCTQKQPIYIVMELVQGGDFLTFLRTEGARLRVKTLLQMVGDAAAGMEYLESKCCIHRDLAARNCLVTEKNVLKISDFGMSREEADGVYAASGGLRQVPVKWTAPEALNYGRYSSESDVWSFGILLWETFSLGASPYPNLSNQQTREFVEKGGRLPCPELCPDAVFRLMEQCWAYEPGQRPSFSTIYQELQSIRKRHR
Serine/threonine-protein kinase B-raf (Homo sapiens), sequence (P15056 whole entry): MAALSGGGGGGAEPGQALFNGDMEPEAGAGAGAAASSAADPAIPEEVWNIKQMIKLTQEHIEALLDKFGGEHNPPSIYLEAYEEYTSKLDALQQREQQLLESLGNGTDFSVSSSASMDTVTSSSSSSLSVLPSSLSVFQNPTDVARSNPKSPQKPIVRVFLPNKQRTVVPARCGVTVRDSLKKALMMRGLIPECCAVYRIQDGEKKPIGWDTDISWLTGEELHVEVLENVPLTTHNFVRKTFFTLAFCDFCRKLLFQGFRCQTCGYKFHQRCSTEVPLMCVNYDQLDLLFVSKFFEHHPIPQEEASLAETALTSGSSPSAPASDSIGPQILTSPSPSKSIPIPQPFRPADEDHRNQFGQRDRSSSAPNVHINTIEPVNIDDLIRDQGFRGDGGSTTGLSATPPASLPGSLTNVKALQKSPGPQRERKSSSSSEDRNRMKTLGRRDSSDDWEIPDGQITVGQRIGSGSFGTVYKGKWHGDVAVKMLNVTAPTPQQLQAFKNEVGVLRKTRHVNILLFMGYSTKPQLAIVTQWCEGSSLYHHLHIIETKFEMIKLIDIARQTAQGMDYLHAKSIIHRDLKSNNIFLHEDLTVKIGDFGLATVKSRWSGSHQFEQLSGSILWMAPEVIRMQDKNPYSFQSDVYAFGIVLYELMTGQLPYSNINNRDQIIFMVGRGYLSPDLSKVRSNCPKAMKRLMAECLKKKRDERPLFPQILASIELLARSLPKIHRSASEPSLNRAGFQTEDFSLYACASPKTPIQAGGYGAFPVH
Serine/threonine-protein kinase PAK 1 (Homo sapiens), sequence (Q13153 whole entry): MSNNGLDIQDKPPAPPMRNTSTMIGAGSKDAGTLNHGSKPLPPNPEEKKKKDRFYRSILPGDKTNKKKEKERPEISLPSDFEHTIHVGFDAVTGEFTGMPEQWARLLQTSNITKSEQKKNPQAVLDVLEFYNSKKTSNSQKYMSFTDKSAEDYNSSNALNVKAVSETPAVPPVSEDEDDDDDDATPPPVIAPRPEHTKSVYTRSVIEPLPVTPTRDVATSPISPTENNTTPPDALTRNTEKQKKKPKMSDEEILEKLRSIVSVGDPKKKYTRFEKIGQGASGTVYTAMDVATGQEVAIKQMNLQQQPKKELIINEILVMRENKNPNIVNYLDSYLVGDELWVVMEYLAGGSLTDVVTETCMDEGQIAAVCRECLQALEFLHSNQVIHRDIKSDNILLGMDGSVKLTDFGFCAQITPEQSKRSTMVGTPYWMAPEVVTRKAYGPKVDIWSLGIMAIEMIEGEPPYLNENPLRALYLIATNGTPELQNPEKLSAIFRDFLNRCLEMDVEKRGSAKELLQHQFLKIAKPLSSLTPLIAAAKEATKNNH
Non-receptor tyrosine-protein kinase TYK2 (Homo sapiens), sequence (P29597 whole entry): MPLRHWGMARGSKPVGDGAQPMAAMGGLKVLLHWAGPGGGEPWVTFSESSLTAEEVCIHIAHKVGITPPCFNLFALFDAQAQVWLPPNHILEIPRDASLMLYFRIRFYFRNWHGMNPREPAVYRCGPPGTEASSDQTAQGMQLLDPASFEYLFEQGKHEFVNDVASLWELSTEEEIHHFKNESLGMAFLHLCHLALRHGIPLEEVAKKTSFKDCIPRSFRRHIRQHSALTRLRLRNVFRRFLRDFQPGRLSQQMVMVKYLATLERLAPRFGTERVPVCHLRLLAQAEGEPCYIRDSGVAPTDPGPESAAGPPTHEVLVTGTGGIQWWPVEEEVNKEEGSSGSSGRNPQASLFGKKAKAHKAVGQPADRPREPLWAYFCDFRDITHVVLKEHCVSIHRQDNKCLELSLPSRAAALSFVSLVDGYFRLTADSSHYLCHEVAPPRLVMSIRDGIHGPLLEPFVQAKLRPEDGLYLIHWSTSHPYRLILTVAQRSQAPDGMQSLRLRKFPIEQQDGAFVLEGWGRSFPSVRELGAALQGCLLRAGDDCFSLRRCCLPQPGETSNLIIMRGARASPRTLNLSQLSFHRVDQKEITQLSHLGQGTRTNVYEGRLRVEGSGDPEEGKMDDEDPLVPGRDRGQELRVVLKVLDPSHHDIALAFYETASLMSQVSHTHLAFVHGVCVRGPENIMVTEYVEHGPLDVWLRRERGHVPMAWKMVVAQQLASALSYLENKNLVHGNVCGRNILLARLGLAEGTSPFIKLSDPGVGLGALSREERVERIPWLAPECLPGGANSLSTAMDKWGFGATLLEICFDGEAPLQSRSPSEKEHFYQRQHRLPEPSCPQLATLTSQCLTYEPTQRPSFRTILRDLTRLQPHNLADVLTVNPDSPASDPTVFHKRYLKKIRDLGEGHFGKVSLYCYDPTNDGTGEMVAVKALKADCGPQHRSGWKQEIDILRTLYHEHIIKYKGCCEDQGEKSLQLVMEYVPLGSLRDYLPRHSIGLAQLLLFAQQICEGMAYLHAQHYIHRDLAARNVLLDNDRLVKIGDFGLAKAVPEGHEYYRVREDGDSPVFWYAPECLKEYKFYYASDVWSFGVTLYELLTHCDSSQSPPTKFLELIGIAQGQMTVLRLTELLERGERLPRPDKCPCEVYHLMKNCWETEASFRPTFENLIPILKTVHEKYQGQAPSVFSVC
Activated CDC42 kinase 1 (Homo sapiens), sequence (Q07912 whole entry, looked up): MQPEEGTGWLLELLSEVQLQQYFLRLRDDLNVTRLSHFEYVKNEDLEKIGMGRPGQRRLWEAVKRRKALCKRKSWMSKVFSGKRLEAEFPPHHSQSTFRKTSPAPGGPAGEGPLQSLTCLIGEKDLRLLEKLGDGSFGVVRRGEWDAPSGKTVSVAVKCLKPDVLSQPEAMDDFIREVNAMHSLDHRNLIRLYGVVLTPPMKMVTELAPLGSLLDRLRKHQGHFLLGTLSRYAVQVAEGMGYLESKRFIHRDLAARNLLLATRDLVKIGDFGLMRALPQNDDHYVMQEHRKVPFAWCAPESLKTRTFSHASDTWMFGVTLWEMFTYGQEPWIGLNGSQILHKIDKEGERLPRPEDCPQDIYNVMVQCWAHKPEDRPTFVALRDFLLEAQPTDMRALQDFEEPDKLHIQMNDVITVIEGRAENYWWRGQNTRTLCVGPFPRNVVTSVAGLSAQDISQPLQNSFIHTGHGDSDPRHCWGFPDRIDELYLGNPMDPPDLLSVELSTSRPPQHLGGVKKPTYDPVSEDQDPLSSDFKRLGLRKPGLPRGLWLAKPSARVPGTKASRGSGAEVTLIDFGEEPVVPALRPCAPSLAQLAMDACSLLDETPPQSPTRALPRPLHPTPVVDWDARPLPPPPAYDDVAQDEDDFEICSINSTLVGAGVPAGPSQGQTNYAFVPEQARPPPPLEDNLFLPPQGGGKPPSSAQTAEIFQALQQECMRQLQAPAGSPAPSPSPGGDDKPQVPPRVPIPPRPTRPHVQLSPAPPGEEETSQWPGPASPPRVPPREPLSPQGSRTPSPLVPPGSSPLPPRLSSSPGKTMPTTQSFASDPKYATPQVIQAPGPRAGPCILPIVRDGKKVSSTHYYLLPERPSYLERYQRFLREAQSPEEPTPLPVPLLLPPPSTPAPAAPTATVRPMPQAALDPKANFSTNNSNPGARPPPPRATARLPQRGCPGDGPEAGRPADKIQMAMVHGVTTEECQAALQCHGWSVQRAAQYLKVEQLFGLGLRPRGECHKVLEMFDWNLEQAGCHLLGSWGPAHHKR
Maternal embryonic leucine zipper kinase (Homo sapiens), sequence (Q14680 whole entry, looked up): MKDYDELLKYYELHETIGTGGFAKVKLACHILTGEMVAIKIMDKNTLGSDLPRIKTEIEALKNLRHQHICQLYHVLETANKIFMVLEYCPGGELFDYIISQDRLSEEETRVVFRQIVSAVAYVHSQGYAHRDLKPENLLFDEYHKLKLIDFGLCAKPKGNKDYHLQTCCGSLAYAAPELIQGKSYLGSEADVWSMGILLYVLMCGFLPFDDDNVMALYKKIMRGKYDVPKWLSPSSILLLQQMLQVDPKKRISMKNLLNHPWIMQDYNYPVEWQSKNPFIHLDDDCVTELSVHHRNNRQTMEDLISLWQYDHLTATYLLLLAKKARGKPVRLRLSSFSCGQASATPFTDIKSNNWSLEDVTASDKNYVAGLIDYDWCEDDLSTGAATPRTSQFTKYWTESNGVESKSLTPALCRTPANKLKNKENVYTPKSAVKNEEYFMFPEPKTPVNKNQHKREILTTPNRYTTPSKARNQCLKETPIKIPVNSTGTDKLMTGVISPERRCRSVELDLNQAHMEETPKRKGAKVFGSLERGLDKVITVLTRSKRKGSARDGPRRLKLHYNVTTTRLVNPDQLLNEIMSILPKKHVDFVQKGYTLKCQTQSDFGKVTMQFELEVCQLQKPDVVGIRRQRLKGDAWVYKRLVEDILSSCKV

`CC(C)S(=O)(=O)c1ccc2nccc(Nc3ccc4scnc4c3)c2c1`: the residual activity in [1] is 95.2%; in [2], 90.2%; in test [3], 101%; in [4], 69.9%; in [5], 96.5%; in [6], 109%. Moreover, the residual activity in test [7] was 86.1%; in test [8], 96.5%; in [9], 91%; in test [10], 47.8%; in test [11] it was 88.3%; in test [12], 94.9%.
Turning to `CNC(=O)c1ccc2c(c1)ncn2-c1ccc(CC(=O)OC(C)(C)C)cc1`, the residual activity is 96.8% in [1]; 96.1% in test [2]; 103% in [3]; 83.5% in test [4]; 95.9% in [5]; 89% in test [6]. The residual activity in [7] amounted to 98.1%; in test [8], 105%; in test [9], 91.8%; in test [10], 93.4%; in test [11] it was 95.5%; in [12] it was 90.8%.
Regarding `Cc1cc(-c2cnc(N)c3c(-c4ccc5scnc5c4)csc23)n(C)n1`, the residual activity in test [1] was 105%; in test [2], 79.6%; in test [3], 99.4%; in [4], 91.1%; in test [5], 93.8%; in [6], 64.3%. For the same compound, the residual activity amounted to 95% in test [7]; 88.2% in test [8]; 88.6% in test [9]; 5.38% in [10]; 91.3% in [11]; 93.7% in test [12].

Values taken from ChEMBL document CHEMBL5649166, “RIP3 induces apoptosis independent of pronecrotic kinase activity” (Mol Cell, 2014).
